Test results reported in patent US20140256735A1, “METHOD FOR ASSESSING A LIVER OF A PATIENT HAVING A CHRONIC HEPATITIS B VIRUS INFECTION” (PURDUE RESEARCH FOUNDATION, priority 2011, published 2014).

Experiments:
Format in all cases: cell-based
[1] = system: HepAD38 cells; experiment: Apoptosis in HBV-replicating HepAD38 cells by immunoblot of pro-caspase-3 and caspase-3; details: 250 nM or 500 nM added on day 8 for 48 h or day 9 for 24 h
Excerpt: Whole cell extract isolated without (−) or with (+) 1 addition of BI 2536 were immunoblotted for hepatitis B virus core antigen, caspase 3 and cleaved/active caspase. […] Expression of viral RNA was quantified by real-time PCR employing primer pairs described by Zhang et al. (Hepatology 53:1476-1485, 2011). Results are the average from two independent WCE preparations. Error bars indicate+/−standard error of the mean. […] Quantification of indicated proteins is by ImageJ software vs. actin. Results are the average from two independent WCE preparations. Error bars indicate+/−standard error of the mean.
(§1) Employing the HepAD38 cell line that supports hepatitis B virus replication following tetracycline removal (Ladner et al., Antimicrobial Agents and Chemotherapy, 41:1715-1720, 1997), viral replication as well as expression of the Suz12-repressed and proliferation cluster genes were quantified 10 days after induction of hepatitis B virus replication (FIG. 7). Also, the effect of Plk1 inhibition on viral replication and expression of the proliferation cluster and Suz12 target genes was investigated. […] Under these conditions of Plk1 inhibition, expression of the proliferation cluster and Suz12-repressed genes on day 10 of hepatitis B virus replication was quantified (FIG. 7C and D). Expression of both gene clusters increased in the presence of hepatitis B virus replication (FIG. 7C and D).

[2] = system: Suz12 and Znf198; experiment: Immunoblots of Suz12 and Znf198 protein levels in HepAD38 cell lysates; details: HepAD38 cells, day 10 of HBV replication; 500 nM for 24 h; vs. actin
Experimental: (§2) FIGS. 7A-D show enhanced expression of the Suz12 repressed genes and proliferation genes in the presence of hepatitis B virus replication. […] HepAD38 cells were grown with (+) or without (−) tetracycline for 10 days, i.e. without (−) or with (+) hepatitis B virus replication, respectively. Hepatitis B virus genome equivalents were quantified by real-time PCR of DNA isolated from purified intracellular virions as described (Wang et al., Hepatology, 53:1137-47, 2011). (Left panel) Effect of DMSO addition (5.0 μl) on hepatitis B virus replication. (Right panel) 250 nM or 500 nM BI 2536 dissolved in DMSO (5.0 μl) added on day 8 for 48 h or day 9 for 24 h, as indicated, prior to cell harvesting. Results represent the average of three independent experiments. Error bars indicate+/−standard 1 error of the mean. […] Relative intensity of indicated protein levels was quantified by ImageJ software vs. actin. […] Quantification is relative to GAPDH used as internal control. […]
(§3) Whole cell extract isolated without (−) or with (+) 1 addition of BI 2536 were immunoblotted for hepatitis B virus core antigen, caspase 3 and cleaved/active caspase. […] Expression of viral RNA was quantified by real-time PCR employing primer pairs described by Zhang et al. (Hepatology 53:1476-1485, 2011). […] Quantification of indicated proteins is by ImageJ software vs. actin. […]

[3] = system: proliferation gene cluster and Suz12 repressed genes; experiment: Real-time PCR of proliferation gene cluster and Suz12 repressed genes in HepAD38 cells; details: day 10 of HBV replication, 500 nM for 24 h, relative to GAPDH
Experimental: FIGS. 7A-D show enhanced expression of the Suz12 repressed genes and proliferation genes in the presence of hepatitis B virus replication. […] HepAD38 cells were grown with (+) or without (−) tetracycline for 10 days, i.e. without (−) or with (+) hepatitis B virus replication, respectively. Hepatitis B virus genome equivalents were quantified by real-time PCR of DNA isolated from purified intracellular virions as described (Wang et al., Hepatology, 53:1137-47, 2011). (Left panel) Effect of DMSO addition (5.0 μl) on hepatitis B virus replication. (Right panel) 250 nM or 500 nM BI 2536 dissolved in DMSO (5.0 μl) added on day 8 for 48 h or day 9 for 24 h, as indicated, prior to cell harvesting. Results represent the average of three independent experiments. Error bars indicate+/−standard 1 error of the mean. […] Relative intensity of indicated protein levels was quantified by ImageJ software vs. actin. A representative experiment is shown from three independent experiments. […] Quantification is relative to GAPDH used as internal control. Results are from three independent RNA isolations. PCR assays were performed in triplicates. Error bars indicate+/−standard error of the mean.
cDNA was synthesized from 2.0 μg total RNA using iSCRIPT cDNA synthesis kit (Bio-Rad). Real-time PCR reactions were performed in triplicates and normalized to GAPDH.
as §1, with “Expression of both gene clusters increased in the presence of hepatitis B virus replication (FIG. 7C and D).” left out

[4] = system: hepatitis B virus; experiment: Hepatitis B virus replication in HepAD38 cells (genome equivalents in intracellular virions, core antigen immunoblots, viral RNA PCR); details: HepAD38 cells without tetracycline 10 days, 250 nM or 500 nM added on day 8 for 48 h or day 9 for 24 h
Experimental: as §2, §3

In the case of `CC[C@@H]1C(=O)N(C)c2cnc(Nc3ccc(C(=O)NC4CCN(C)CC4)cc3OC)nc2N1C1CCCC1` [BI 2536], the “apoptosis (levels of pro-caspase-3 and caspase-3)” value [1] is reported as “did not induce apoptosis”, the “protein level of Suz12” value [2] is reported as “increased” and the “protein level of Znf198” value [2] is reported as “increased”. For the same molecule, the “expression of the Suz12 repressed genes DKK2, EpCAM and IGFII” value [3] was “significantly decreased”, the “expression of the proliferation genes” value [3] was “significantly reduced” and the “expression of the Suz12 repressed genes DKK2, EpCAM and IGFII” value ([3]; listed as BI2536) was “significantly reduced”. The “hepatitis B virus replication (genome equivalents in purified intracellular virions, core antigen immunoblots, viral RNA PCR)” value [4] was “suppressed hepatitis B virus replication” and the “hepatitis B virus replication (genome equivalents in purified intracellular virions, core antigen immunoblots, viral RNA PCR)” value ([4]; listed as BI2536) was “significantly reduced”.
